According to patent US12528826B2, “[1,4]oxazepino[2,3-c]quinolinone derivatives as BCL6 inhibitors” (Cancer Research Technology Limited, priority 2019, dated 2026):

The molecules below were run against T1, Trx-6×His-BCL6 (human BCL6 BTB domain covering amino-acid sequence 5-129) (Homo sapiens, UniProt P41182) (assay: HTRF assay (BCL6 / BCOR peptide)). Conditions: 1 nM Trx-6×His-BCL6, 300 nM BCOR-AF633 peptide, 2 hours incubation at room temperature.
T1 construct: made in house
Type: binding
Experimental: After 2 hours incubation at room temperature the plate was read on a Pherastar FSX (BMG Labtech) plate reader equipped with 337 nm laser excitation filter, a first emission filter at 620 nm and a second emission filter at 665 nm. The % inhibition at each concentration was calculated by normalising FRET ratio to the appropriate high (DMSO with all reagents) and low (DMSO without BCL6) controls.

HTRF avg pIC50 | Molecule
7.81 | C[C@H]1CN(c2ncc(Cl)c(Nc3ccc4c(c3)c3c(c(=O)n4C)OCC(F)(F)[C@H](C4CC4)N3)n2)CCC1(F)F (single isomer, unassigned) [Example 14a, (S)-10-((5-chloro-2-((S)-4,4-difluoro-3-methylpiperidin-1-yl)pyrimidin-4-yl)amino)-2-cyclopropyl-3,3-difluoro-7-methyl-1,2,3,4-tetrahydro-[1,4]oxazepino[2,3-c]quinolin-6(7H)-one or (S)-10-((5-chloro-2-((R)-4,4-difluoro-3-methylpiperidin-1-yl)pyrimidin-4-yl)amino)-2-cyclopropyl-3,3-difluoro-7-methyl-1,2,3,4-tetrahydro-[1.4]oxazepino[2,3-c]quinolin-6(7H)-one]
8.60 | Cn1c(=O)c2c(c3cc(Nc4nc(N5C[C@@H](O)C[C@@H](F)C5)ncc4Cl)ccc31)N[C@@H](C1CC1)C(F)(F)CO2 [Example 9a, (S)-10-((5-chloro-2-((3S,5R)-3-fluoro-5-hydroxypiperidin-1-yl)pyrimidin-4-yl)amino)-2-cyclopropyl-3,3-difluoro-7-methyl-1,2,3,4-tetrahydro-[1,4]oxazepino[2,3-c]quinolin-6(7H)-one: (S)-10-((5-chloro-2-((3R,5S)-3-fluoro-5-hydroxypiperidin-1-yl)pyrimidin-4-yl)amino)-2-cyclopropyl-3,3-difluoro-7-methyl-1,2,3,4-tetrahydro-[1,4]oxazepino[2,3-c]quinolin-6(7H)-one (1:1)]
7.86 | Cn1c(=O)c2c(c3cc(Nc4ccnc(Cl)c4Cl)ccc31)N[C@@H](C1CC1)C(F)(F)CO2 [Example 4c, (S)-2-cyclopropyl-10-((2,3-dichloropyridin-4-yl)amino)-3,3-difluoro-7-methyl-1,2,3,4-tetrahydro-[1,4]oxazepino[2,3-c]quinolin-6(7H)-one]

Molecule | HTRF avg pIC50
(S)-10-((5-chloro-2-((R)-3,3-difluoro-5-hydroxypiperidin-1-yl)pyrimidin-4-yl)amino)-2-cyclopropyl-3,3-difluoro-7-methyl-1,2,3,4-tetrahydro-[1,4]oxazepino[2,3-c]quinolin-6(7H)-one:(S)-10-((5-chloro-2-((S)-3,3-difluoro-5-hydroxypiperidin-1-yl)pyrimidin-4-yl)amino)-2-cyclopropyl-3,3-difluoro-7-methyl-1,2,3,4-tetrahydro-[1,4]oxazepino[2,3-c]quinolin-6(7H)-one (1:1) [Example 12e] | 8.32

Same assay, conditions: 1 nM Trx-6×His-BCL6, 300 nM BCOR-AF633 peptide, 2 hours incubation at room temperature; read-out: HTRF avg pIC50 (converted)

IC50 | Molecule
2.95 nM | C[C@H]1C[C@@H](N)CN(c2ncc(Cl)c(Nc3ccc4c(c3)c3c(c(=O)n4C)OCC(F)(F)[C@H](C4CC4)N3)n2)C1 [Example 12c, (S)-10-((2-((3R,5S)-3-amino-5-methylpiperidin-1-yl)-5-chloropyrimidin-4-yl)amino)-2-cyclopropyl-3,3-difluoro-7-methyl-1,2,3,4-tetrahydro-[1,4]oxazepino[2,3-c]quinolin-6(7H)-one]
5.62 nM | C[C@H]1C[C@H](O)CN(c2ncc(Cl)c(Nc3ccc4c(c3)c3c(c(=O)n4C)OCC(F)(F)[C@H](C4CC4)N3)n2)C1 [Example 12x13, (S)-10-((5-chloro-2-((3S,5S)-3-hydroxy-5-methylpiperidin-1-yl)pyrimidin-4-yl)amino)-2-cyclopropyl-3,3-difluoro-7-methyl-1,2,3,4-tetrahydro-[1,4]oxazepino[2,3-c]quinolin-6(7H)-one]
55 nM | CC1CCCCN(c2ncc(Cl)c(Nc3ccc4c(c3)c3c(c(=O)n4C)OCC(F)(F)[C@H](C4CC4)N3)n2)C1 (mixture of isomers) [Example 11c, (S)-10-((5-chloro-2-((R)-3-methylazepan-1-yl)pyrimidin-4-yl)amino)-2-cyclopropyl-3,3-difluoro-7-methyl-1,2,3,4-tetrahydro-[1,4]oxazepino[2,3-c]quinolin-6(7H)-one:(S)-10-((5-chloro-2-((S)-3-methylazepan-1-yl)pyrimidin-4-yl)amino)-2-cyclopropyl-3,3-difluoro-7-methyl-1,2,3,4-tetrahydro-[1,4]oxazepino[2,3-c]quinolin-6(7H)-one (1:1)]
30.2 nM | CC1CN(c2ncc(Cl)c(Nc3ccc4c(c3)c3c(c(=O)n4C)OCC(F)(F)[C@H](C4CC4)N3)n2)CC(C)S1 (stereo partly drawn) [Example 12x06, (2S)-10-((5-chloro-2-(2,6-dimethylthiomorpholino)pyrimidin-4-yl)amino)-2-cyclopropyl-3,3-difluoro-7-methyl-1,2,3,4-tetrahydro-[1,4]oxazepino[2,3-c]quinolin-6(7H)-one]
8.32 nM | Cn1c(=O)c2c(c3cc(Nc4nc(N5CC(F)(F)C[C@H]5CO)ncc4Cl)ccc31)N[C@@H](C1CC1)C(F)(F)CO2 [Example 12x47, (S)-10-((5-chloro-2-((S)-4,4-difluoro-2-(hydroxymethyl)pyrrolidin-1-yl)pyrimidin-4-yl)amino)-2-cyclopropyl-3,3-difluoro-7-methyl-1,2,3,4-tetrahydro-[1,4]oxazepino[2,3-c]quinolin-6(7H)-one]
7.24 nM | Cn1c(=O)c2c(c3cc(Nc4nc(N5C[C@H]6CC[C@@H](C5)O6)ncc4F)ccc31)N[C@@H](C1CC1)C(F)(F)CO2 [Example 13p11, (S)-10-((2-((1R,5S)-8-oxa-3-azabicyclo[3.2.1]octan-3-yl)-5-fluoropyrimidin-4-yl)amino)-2-cyclopropyl-3,3-difluoro-7-methyl-1,2,3,4-tetrahydro-[1,4]oxazepino[2,3-c]quinolin-6(7H)-one]
1.7 nM | CC1CN(c2ncc(Cl)c(Nc3ccc4c(c3)c3c(c(=O)n4C)OCC(F)(F)[C@H](C4CC4)N3)n2)CC(C)[S+]1[O-] (stereo partly drawn) [Example 12x09, (2S)-10-((5-chloro-2-(2,6-dimethyl-1-oxidothiomorpholino)pyrimidin-4-yl)amino)-2-cyclopropyl-3,3-difluoro-7-methyl-1,2,3,4-tetrahydro-[1,4]oxazepino[2,3-c]quinolin-6(7H)-one]
1.95 nM | Cn1c(=O)c2c(c3cc(Nc4nc(N5CCN(C6CC6)C(=O)C5)ncc4Cl)ccc31)N[C@@H](C1CC1)C(F)(F)CO2 [Example 1b, (S)-10-((5-chloro-2-(4-cyclopropyl-3-oxopiperazin-1-yl)pyrimidin-4-yl)amino)-2-cyclopropyl-3,3-difluoro-7-methyl-1,2,3,4-tetrahydro-[1,4]oxazepino[2,3-c]quinolin-6(7H)-one]
3.47 nM | Cn1c(=O)c2c(c3cc(Nc4nc(N5CCNCC(O)C5)ncc4Cl)ccc31)N[C@@H](C1CC1)C(F)(F)CO2 (stereo partly drawn) [Example 12x14, (2S)-10-((5-chloro-2-(6-hydroxy-1,4-diazepan-1-yl)pyrimidin-4-yl)amino)-2-cyclopropyl-3,3-difluoro-7-methyl-1,2,3,4-tetrahydro-[1,4]oxazepino[2,3-c]quinolin-6(7H)-one]
3.89 nM | COCC(C)CNc1ncc(Cl)c(Nc2ccc3c(c2)c2c(c(=O)n3C)OCC(F)(F)[C@H](C3CC3)N2)n1 (mixture of isomers) [Example 11m, (S)-10-((5-chloro-2-(((R)-3-methoxy-2-methylpropyl)amino)pyrimidin-4-yl)amino)-2-cyclopropyl-3,3-difluoro-7-methyl-1,2,3,4-tetrahydro-[1,4]oxazepino[2,3-c]quinolin-6(7H)-one:(S)-10-((5-chloro-2-(((S)-3-methoxy-2-methylpropyl)amino)pyrimidin-4-yl)amino)-2-cyclopropyl-3,3-difluoro-7-methyl-1,2,3,4-tetrahydro-[1,4]oxazepino[2,3-c]quinolin-6(7H)-one (1:1)]
2.51 nM | C[C@@H]1C[C@H](N)CN(c2ncc(Cl)c(Nc3ccc4c(c3)c3c(c(=O)n4C)OCC(F)(F)[C@H](C4CC4)N3)n2)C1 [Example 12b, (S)-10-((2-((3S,5R)-3-amino-5-methylpiperidin-1-yl)-5-chloropyrimidin-4-yl)amino)-2-cyclopropyl-3,3-difluoro-7-methyl-1,2,3,4-tetrahydro-[1,4]oxazepino[2,3-c]quinolin-6(7H)-one]
19.5 nM | CN(C)c1cc(Nc2ccc3c(c2)c2c(c(=O)n3C)OCC(F)(F)[C@H](C3CC3)N2)c(Cl)cn1 [Example 13c12, (S)-2-cyclopropyl-10-((2-(dimethylamino)-5-chloropyridin-4-yl)amino)-3,3-difluoro-7-methyl-1,2,3,4-tetrahydro-[1,4]oxazepino[2,3-c]quinolin-6(7H)-one]
4.68 nM | CN(CCC(C)(C)O)c1ncc(Cl)c(Nc2ccc3c(c2)c2c(c(=O)n3C)OCC(F)(F)[C@H](C3CC3)N2)n1 [Example 9v, (S)-10-((5-chloro-2-((3-hydroxy-3-methylbutyl)(methyl)amino)pyrimidin-4-yl)amino)-2-cyclopropyl-3,3-difluoro-7-methyl-1,2,3,4-tetrahydro-[1,4]oxazepino[2,3-c]quinolin-6(7H)-one]
3.72 nM | Cn1c(=O)c2c(c3cc(Nc4nc(N5CCC(F)(F)C(CC(=O)N6CC(F)(F)C6)C5)ncc4Cl)ccc31)N[C@@H](C1CC1)C(F)(F)CO2 (mixture of isomers) [Example 12x20, (2S)-10-((5-chloro-2-(3-(2-(3,3-difluoroazetidin-1-yl)-2-oxoethyl)-4,4-difluoropiperidin-1-yl)pyrimidin-4-yl)amino)-2-cyclopropyl-3,3-difluoro-7-methyl-1,2,3,4-tetrahydro-[1,4]oxazepino[2,3-c]quinolin-6(7H)-one]
2.04 nM | CC1CC(CC(=O)N2CCC2)CN(c2ncc(Cl)c(Nc3ccc4c(c3)c3c(c(=O)n4C)OCC(F)(F)[C@H](C4CC4)N3)n2)C1 (single isomer, unassigned) [Example 12x16a]
5.37 nM | Cn1c(=O)c2c(c3cc(Nc4nc(N5CC(CF)C5)ncc4Cl)ccc31)N[C@@H](C1CC1)C(F)(F)CO2 [Example 12x35, (S)-10-((5-chloro-2-(3-(fluoromethyl)azetidin-1-yl)pyrimidin-4-yl)amino)-2-cyclopropyl-3,3-difluoro-7-methyl-1,2,3,4-tetrahydro-[1,4]oxazepino[2,3-c]quinolin-6(7H)-one]
